Experimental data published in patent US20250368625A1, “PIPERAZINES” (Grünenthal GmbH, priority 2024, published 2025).

Molecular target: T1, human SSTR4 (Homo sapiens, UniProt P31391)
T1 construct: expressed in transfected cells; host or cells: CHO-K1
Assay: hSSTR4 cAMP assay (cAMP accumulation, LANCE Ultra cAMP kit, CHO-K1 human SSTR4 Gi cell line)
Type: cell-based
Settings: functional agonism, forskolin 10 μM stimulated CHO-K1 human SSTR4 Gi cells, 30 min at 25° C., at least duplicate, averaged; read-out: hSSTR4 EC50
Experimental: cAMP accumulation assay using a CHO-K1 human SSTR4 Gi cell line.
Quantification of intracellular cAMP was performed using the LANCE Ultra cAMP assay kit from Revvity according to the manufacturer's instructions. CHO-K1 human SSTR4 Gi cell were either seeded in a density of 3K cells per well into a 384 well plate and incubated at 37° C. and 5% CO2 for 18-20 h or a stock of frozen cells were defrosted and seeded in a density of 5K cells per well without any further cultivation directly prior to the assay in a total volume of 5 μL in stimulation buffer. For pre-cultured cells, medium was replaced with 5 μL stimulation buffer before the assay. Cells were then stimulated with forskolin (final concentration 10 μM) and test compound (SSTR4 agonist) in increasing concentrations in duplicates for 30 min at 25° C. After stimulation, cells were lysed by addition of 10 μL of detection buffer (provided with the kit) and cell lysates were further diluted to ensure final cAMP concentrations fitted well into the dynamic range of the test kit. 10 μL of the diluted lysates were then added to respective wells of an OptiPlate-384 microplate. Thereafter, 5 μL of 4× Eu-cAMP tracer working solution was added, followed by addition of 5 μL of ULight-anti-cAMP working solution. The plate was then incubated for 1 h at 25° C. before reading on a TR-FRET microplate instrument. Data were normalized to cAMP high (forskolin only) and low control (forskolin+100 nM SST14) before fitting to a 4-Paramter logistic function.
All data was generated according to the cAMP assay conditions described above in at least duplicate and results are averaged and rounded to two significant figures.

T1 sequence (P31391 whole entry): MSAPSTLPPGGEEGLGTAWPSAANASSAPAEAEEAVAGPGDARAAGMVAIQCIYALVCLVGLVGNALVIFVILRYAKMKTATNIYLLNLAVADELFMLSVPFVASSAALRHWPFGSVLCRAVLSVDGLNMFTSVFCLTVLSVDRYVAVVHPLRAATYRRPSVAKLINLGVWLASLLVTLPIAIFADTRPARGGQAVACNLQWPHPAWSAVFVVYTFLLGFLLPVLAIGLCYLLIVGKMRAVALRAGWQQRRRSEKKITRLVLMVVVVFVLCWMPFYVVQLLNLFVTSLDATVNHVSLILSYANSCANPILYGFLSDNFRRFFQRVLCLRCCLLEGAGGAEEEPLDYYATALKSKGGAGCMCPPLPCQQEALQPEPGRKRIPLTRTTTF

| Structure (SMILES) | EC50 [nM] |
| --- | --- |
| Cc1cc(CN2CCNC[C@H]2C(=O)NC(C)(C)c2ncc3c(C)cccn23)ccn1 [SC-091, (S)-N-(2-(8-methylimidazo[1,5-a]pyridin-3-yl)propan-2-yl)-1-((2-methylpyridin-4-yl)methyl)piperazine-2-carboxamide] | 0.06 |
| Cn1cc(CN2CCNC[C@H]2C(=O)NC(C)(C)c2ncc3c(C(F)(F)F)cccn23)cn1 [SC-111, (S)-1-((1-methyl-1H-pyrazol-4-yl)methyl)-N-(2-(8-(trifluoromethyl)imidazo[1,5-a]pyridin-3-yl)propan-2-yl)piperazine-2-carboxamide] | 94 |
| COCC(C)(C)CN1CCNC[C@H]1C(=O)NC(C)(C)c1ncc2c(C)cccn12 [SC-039, (S)-1-(3-methoxy-2,2-dimethylpropyl)-N-(2-(8-methylimidazo[1,5-a]pyridin-3-yl)propan-2-yl)piperazine-2-carboxamide] | 1.4 |
| Cc1cccn2c(C(C)(C)NC(=O)[C@@H]3CNCCN3Cc3cnc(C(F)(F)F)nc3)ncc12 [SC-038, (S)-N-(2-(8-methylimidazo[1,5-a]pyridin-3-yl)propan-2-yl)-1-((2-(trifluoromethyl)pyrimidin-5-yl)methyl)piperazine-2-carboxamide] | 0.6 |
| Cc1cccn2c(C(C)(C)NC(=O)[C@@H]3CN(Cc4ccccc4)CCN3)ncc12 [SC-058, (S)-4-benzyl-N-(2-(8-methylimidazo[1,5-a]pyridin-3-yl)propan-2-yl)piperazine-2-carboxamide] | 1700 |
| Cn1nc(C(C)(C)NC(=O)[C@@H]2CNCCN2CC2CCOCC2)c2ccccc21 [SC-103, (S)-N-(2-(1-methyl-1H-indazol-3-yl)propan-2-yl)-1-((tetrahydro-2H-pyran-4-yl)methyl)piperazine-2-carboxamide] | 0.22 |
| Cc1cccn2c(C(C)(C)NC(=O)[C@@H]3CN(C)CCN3C)ncc12 [SC-046, (S)-1,4-dimethyl-N-(2-(8-methylimidazo[1,5-a]pyridin-3-yl)propan-2-yl)piperazine-2-carboxamide] | 2.8 |
| Cc1cccn2c(C(C)(C)NC(=O)[C@@H]3CNCCN3C(C)C)ncc12 (racemic) [SC-002, rac-1-isopropyl-N-(2-(8-methylimidazo[1,5-a]pyridin-3-yl)propan-2-yl)piperazine-2-carboxamide] | 1.1 |
| Cc1cccc2c(C(C)(C)NC(=O)[C@@H]3CNCCN3CC3CCOCC3)n[nH]c12 [SC-096, (S)-N-(2-(7-methyl-1H-indazol-3-yl)propan-2-yl)-1-((tetrahydro-2H-pyran-4-yl)methyl)piperazine-2-carboxamide] | 0.46 |
| Cc1cccn2c(C(C)(C)NC(=O)[C@@H]3CN(Cc4ncco4)CCN3)ncc12 [SC-065, (S)-N-(2-(8-methylimidazo[1,5-a]pyridin-3-yl)propan-2-yl)-4-(oxazol-2-ylmethyl)piperazine-2-carboxamide] | 1300 |
| Cc1cccn2c(C(C)(C)NC(=O)[C@@H]3CN(C4CCC(F)(F)CC4)CCN3)ncc12 [SC-055, (S)-4-(4,4-difluorocyclohexyl)-N-(2-(8-methylimidazo[1,5-a]pyridin-3-yl)propan-2-yl)piperazine-2-carboxamide] | 8400 |
| Cc1cccn2c(C(C)(C)NC(=O)[C@@H]3CNCCN3CC3CCC(F)(F)CC3)ncc12 [SC-087, (S)-1-((4,4-difluorocyclohexyl)methyl)-N-(2-(8-methylimidazo[1,5-a]pyridin-3-yl)propan-2-yl)piperazine-2-carboxamide] | 0.27 |
| Cc1cccn2c(C(C)(C)NC(=O)[C@@H]3CNCCN3C)ncc12 [SC-016, (S)-1-methyl-N-(2-(8-methylimidazo[1,5-a]pyridin-3-yl)propan-2-yl)piperazine-2-carboxamide] | 0.44 |
| Cc1cccn2c(C(C)(C)NC(=O)[C@@H]3CNCCN3Cc3cnccn3)ncc12 (racemic) [SC-007, rac-N-(2-(8-methylimidazo[1,5-a]pyridin-3-yl)propan-2-yl)-1-(pyrazin-2-ylmethyl)piperazine-2-carboxamide] | 2.2 |
| COCCN1CCNC[C@H]1C(=O)NC(C)(C)c1n[nH]c2c(C)cccc12 [SC-097, (S)-1-(2-methoxyethyl)-N-(2-(7-methyl-1H-indazol-3-yl)propan-2-yl)piperazine-2-carboxamide] | 1.2 |
| Cc1cccc2c(C(C)(C)NC(=O)[C@@H]3CNCCN3C)n[nH]c12 [SC-094, (S)-1-methyl-N-(2-(7-methyl-1H-indazol-3-yl)propan-2-yl)piperazine-2-carboxamide] | 0.21 |
| Cn1cc(CN2CCNC[C@H]2C(=O)NC(C)(C)c2ncc3c(Cl)cccn23)cn1 [SC-106, (S)-N-(2-(8-chloroimidazo[1,5-a]pyridin-3-yl)propan-2-yl)-1-((1-methyl-1H-pyrazol-4-yl)methyl)piperazine-2-carboxamide] | 1.5 |
| Cc1cccn2c(C(C)(C)NC(=O)[C@@H]3CN(Cc4ccnn4C)CCN3)ncc12 [SC-072, (S)-4-((1-methyl-1H-pyrazol-5-yl)methyl)-N-(2-(8-methylimidazo[1,5-a]pyridin-3-yl)propan-2-yl)piperazine-2-carboxamide] | 1200 |
| CCCN1CCN[C@H](C(=O)NC(C)(C)c2ncc3c(C)cccn23)C1 [SC-070, (S)-N-(2-(8-methylimidazo[1,5-a]pyridin-3-yl)propan-2-yl)-4-propylpiperazine-2-carboxamide] | 82 |
| Cc1cccn2c(C(C)(C)NC(=O)[C@@H]3CN(C4CCOCC4)CCN3)ncc12 [SC-056, (S)-N-(2-(8-methylimidazo[1,5-a]pyridin-3-yl)propan-2-yl)-4-(tetrahydro-2H-pyran-4-yl)piperazine-2-carboxamide] | 3000 |

More lines, in order of falling EC50, values ahead:

| EC50 [nM] | Structure (SMILES) |
| --- | --- |
| 300 | Cc1cccn2c(C(C)(C)NC(=O)[C@@H]3CN(CC(C)C)CCN3)ncc12 [SC-069, (S)-4-isobutyl-N-(2-(8-methylimidazo[1,5-a]pyridin-3-yl)propan-2-yl)piperazine-2-carboxamide] |
| 17 | CCN1CCN[C@H](C(=O)NC(C)(C)c2ncc3c(C)cccn23)C1 [SC-054, (S)-4-ethyl-N-(2-(8-methylimidazo[1,5-a]pyridin-3-yl)propan-2-yl)piperazine-2-carboxamide] |
| 9.2 | Cc1cccn2c(C(C)(C)NC(=O)[C@@H]3CN(C)CCN3CC3COC3)ncc12 [SC-048, (S)-4-methyl-N-(2-(8-methylimidazo[1,5-a]pyridin-3-yl)propan-2-yl)-1-(oxetan-3-ylmethyl)piperazine-2-carboxamide] |
| 6.1 | Cc1cccn2c(C(C)(C)NC(=O)[C@@H]3CN(C)CCN3Cc3cnn(C)c3)ncc12 [SC-044, (S)-4-methyl-1-((1-methyl-1H-pyrazol-4-yl)methyl)-N-(2-(8-methylimidazo[1,5-a]pyridin-3-yl)propan-2-yl)piperazine-2-carboxamide] |
| 3.3 | Cc1cccn2c(C(C)(C)NC(=O)C3CNCCN3Cc3ccccn3)ncc12 (racemic) [SC-003, rac-N-(2-(8-methylimidazo[1,5-a]pyridin-3-yl)propan-2-yl)-1-(pyridin-2-ylmethyl)piperazine-2-carboxamide] |
| 2.6 | Cc1cccc2c(C(C)(C)NC(=O)[C@@H]3CNCCN3C)nn(C)c12 [SC-126, (S)-N-(2-(1,7-dimethyl-1H-indazol-3-yl)propan-2-yl)-1-methylpiperazine-2-carboxamide] |
| 1.7 | Cc1cccn2c(C(C)(C)NC(=O)[C@@H]3CNCCN3CC3(C)CCOCC3)ncc12 [SC-037, (S)-N-(2-(8-methylimidazo[1,5-a]pyridin-3-yl)propan-2-yl)-1-((4-methyltetrahydro-2H-pyran-4-yl)methyl)piperazine-2-carboxamide] |
| 0.9 | CN1CCNC[C@H]1C(=O)NC(C)(C)c1ncc2c(Cl)cccn12 [SC-104, (S)-N-(2-(8-chloroimidazo[1,5-a]pyridin-3-yl)propan-2-yl)-1-methylpiperazine-2-carboxamide] |
| 0.86 | Cc1cccn2c(C(C)(C)NC(=O)C3CNCCN3c3ccccc3)ncc12 (racemic) [SC-093, rac-N-(2-(8-methylimidazo[1,5-a]pyridin-3-yl)propan-2-yl)-1-phenylpiperazine-2-carboxamide] |
| 0.39 | Cc1cccc2c(C(C)(C)NC(=O)[C@@H]3CNCCN3C(C)C)n[nH]c12 [SC-040, (S)-1-isopropyl-N-(2-(7-methyl-1H-indazol-3-yl)propan-2-yl)piperazine-2-carboxamide] |
| 0.11 | Cc1cccn2c(C(C)(C)NC(=O)[C@@H]3CNCCN3Cc3cccc(F)c3)ncc12 [SC-029, (S)-1-(3-fluorobenzyl)-N-(2-(8-methylimidazo[1,5-a]pyridin-3-yl)propan-2-yl)piperazine-2-carboxamide] |
| 0.05 | Cc1cccn2c(C(C)(C)NC(=O)[C@@H]3CNCCN3Cc3cccc(C(F)(F)F)c3)ncc12 [SC-025, (S)-N-(2-(8-methylimidazo[1,5-a]pyridin-3-yl)propan-2-yl)-1-(3-(trifluoromethyl)benzyl)piperazine-2-carboxamide] |
